This experiment concerns the target T1, CRF receptor (Rattus norvegicus, UniProt P35353).
T1 sequence (P35353 24-415): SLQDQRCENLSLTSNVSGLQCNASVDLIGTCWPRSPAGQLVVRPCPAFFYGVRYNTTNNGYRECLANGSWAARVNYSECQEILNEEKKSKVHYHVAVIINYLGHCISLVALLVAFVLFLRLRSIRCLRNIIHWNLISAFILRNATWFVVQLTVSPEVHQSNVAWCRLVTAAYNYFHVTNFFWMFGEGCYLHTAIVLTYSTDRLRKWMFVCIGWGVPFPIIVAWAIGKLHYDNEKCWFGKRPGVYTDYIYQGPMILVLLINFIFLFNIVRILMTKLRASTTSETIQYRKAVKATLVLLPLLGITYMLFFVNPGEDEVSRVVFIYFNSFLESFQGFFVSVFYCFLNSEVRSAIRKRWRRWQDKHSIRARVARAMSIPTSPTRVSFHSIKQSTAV
The experiment is described as follows: CRF receptor Binding Assay ([125I]-CRF, rat frontal cortical membranes). As to conditions: 125I-CRF 0.2 nM; rat frontal cortical membranes 0.3 mg-protein/ml; 25° C., 2 hours; nonspecific binding with 1 μM CRF; read-out: IC50 (concentration of the test compound which 50% inhibits the 125I-CRF binding).

Counter-ions that a name gives are not always drawn.

In the case of `CCN(c1nc(C)cc(N2CC=C(c3ccccc3)CC2)n1)c1ccc(C(C)C)cc1Br` [Compound 1-01, 2-[N-(2-bromo-4-isopropylphenyl)-N-ethylamino]-4-(4-phenyl-1,2,3,6-tetrahydropyridin-1-yl)-6-methylpyrimidine hydrochloride], the IC50 worked out at 66.1 nM.

For the compound `CCN(c1nc(C)cc(N2CC=C(c3cccc(F)c3)CC2)n1)c1ccc(C(C)C)cc1Br` [Compound 1-02], the IC50 came to 22.1 nM.

On to `C#CCN(c1nc(C)cc(N2CC=C(c3cccc(F)c3)CC2)n1)c1ccc(C(C)C)cc1Br` [Compound 1-03], for which the IC50 came out at 32.2 nM.

With `CCN(c1nc(C)cc(N2CC=C(c3cccc(F)c3)CC2)n1)c1ccc(C(C)C)cc1I` [Compound 1-05], the IC50 was found to be 27.6 nM.

On to `CCN(c1nc(C)cc(N2CC=C(c3cccc(F)c3)CC2)n1)c1ccc(C(C)C)cc1SC` [Compound 1-06], for which the IC50 is 10.5 nM.

For the compound `C#CCN(c1nc(C)cc(N2CC=C(c3cccc(F)c3)CC2)n1)c1ccc(C(C)C)cc1SC` [Compound 1-08], the IC50 worked out at 89 nM.

`CCN(c1nc(C)cc(N2CC=C(c3cccc(F)c3)CC2)n1)c1ccc(N(C)C)cc1Br` [Compound 1-12]: the IC50 is 38.5 nM.

Regarding `CCN(c1nc(C)cc(N2CC=C(c3cccc(F)c3)CC2)n1)c1c(C)cc(C)cc1C` [Compound 1-14], the IC50 was 73.9 nM.

Regarding `CCN(c1nc(C)cc(N2CC=C(c3ccc(F)cc3)CC2)n1)c1ccc(C(C)C)cc1Br` [Compound 1-15], the IC50 is 79.3 nM.

On to `CCN(c1nc(C)cc(N2CC=C(c3ccc(F)cc3)CC2)n1)c1ccc(C(C)C)cc1SC` [Compound 1-16], for which the IC50 is 81.1 nM.

Regarding `CCN(c1nc(C)cc(N2CC=C(c3ccc(F)cc3)CC2)n1)c1ccc(N(C)C)cc1Br` [Compound 1-17], the IC50 turned out to be 73.9 nM.

As to `CCN(c1nc(C)cc(N2CC=C(c3ccc(F)c(F)c3)CC2)n1)c1ccc(C(C)C)cc1Br` [Compound 1-20], the IC50 worked out at 49.8 nM.

As to `CCN(c1nc(C)cc(N2CC=C(c3ccc(F)c(F)c3)CC2)n1)c1ccc(C(C)C)cc1SC` [Compound 1-21], the IC50 came to 81.1 nM.

For `CCN(c1nc(C)cc(N2CC=C(c3ccc(F)c(F)c3)CC2)n1)c1ccc(N(C)C)cc1Br` [Compound 1-22], the IC50 came to 89 nM.

On to `CCN(c1nc(C)cc(N2CC=C(c3cc(F)cc(F)c3)CC2)n1)c1ccc(C(C)C)cc1Br` [Compound 1-25], for which the IC50 came to 46.4 nM.

As to `CCN(c1nc(C)cc(N2CC=C(c3cc(F)cc(F)c3)CC2)n1)c1ccc(C(C)C)cc1SC` [Compound 1-26], the IC50 was 35.1 nM.

For `C#CCN(c1nc(C)cc(N2CC=C(c3cc(F)cc(F)c3)CC2)n1)c1ccc(C(C)C)cc1SC` [Compound 1-27], the IC50 is 12.6 nM.

As for `CCN(c1nc(C)cc(N2CC=C(c3cccc(Cl)c3)CC2)n1)c1ccc(C(C)C)cc1Br` [Compound 1-30, 2-[N-(2-bromo-4-isopropylphenyl)-N-ethylamino]-4-[4-(3-chlorophenyl)-1,2,3,6-tetrahydropyridin-1-yl]-6-methylpyrimidine hydrochloride], the IC50 is 24.8 nM.

As for `C#CCN(c1nc(C)cc(N2CC=C(c3cccc(Cl)c3)CC2)n1)c1ccc(C(C)C)cc1Br` [Compound 1-31], the IC50 amounted to 96.2 nM.

In the case of `CCN(c1nc(C)cc(N2CC=C(c3cccc(Cl)c3)CC2)n1)c1ccc(N(C)C)cc1Br` [Compound 1-33], the IC50 amounted to 55.9 nM.

On to `CCN(c1nc(C)cc(N2CC=C(c3cccc(Cl)c3)CC2)n1)c1ccc(C(C)C)cc1SC` [Compound 1-34], for which the IC50 amounted to 20.1 nM.

Consider `C#CCN(c1nc(C)cc(N2CC=C(c3cccc(Cl)c3)CC2)n1)c1ccc(C(C)C)cc1SC` [Compound 1-36], for which the IC50 came to 51.5 nM.

For the compound `CCN(c1nc(C)cc(N2CC=C(c3ccc(Cl)cc3)CC2)n1)c1ccc(C(C)C)cc1Br` [Compound 1-41], the IC50 was determined as 38.9 nM.

In the case of `C#CCN(c1nc(C)cc(N2CC=C(c3ccc(Cl)cc3)CC2)n1)c1ccc(C(C)C)cc1Br` [Compound 1-46], the IC50 is 31.3 nM.

Consider `CCN(c1nc(C)cc(N2CC=C(c3ccc(Cl)cc3)CC2)n1)c1ccc(C(C)C)cc1SC` [Compound 1-51], for which the IC50 was 21.5 nM.

In the case of `CCN(c1nc(C)cc(N2CC=C(c3ccc(Cl)cc3)CC2)n1)c1ccc(C2CCCC2)cc1SC` [Compound 1-54], the IC50 stood at 65.8 nM.

For `CCN(c1nc(C)cc(N2CC=C(c3ccc(Cl)cc3)CC2)n1)c1ccc(N(C)C)cc1Br` [Compound 1-55], the IC50 was found to be 45.4 nM.

Turning to `CCN(c1nc(C)cc(N2CC=C(c3ccc(Cl)cc3)CC2)n1)c1ccc(Br)cc1Br` [Compound 1-57], the IC50 came out at 65.8 nM.

Regarding `CCN(c1nc(C)cc(N2CC=C(c3ccc(Cl)c(Cl)c3)CC2)n1)c1ccc(C(C)C)cc1Br` [Compound 1-61], the IC50 was 67.3 nM.

As to `CCN(c1nc(C)cc(N2CC=C(c3ccc(Cl)c(Cl)c3)CC2)n1)c1ccc(C(C)C)cc1SC` [Compound 1-62], the IC50 amounted to 32 nM.

On to `CCN(c1nc(C)cc(N2CC=C(c3cccc(C(F)(F)F)c3)CC2)n1)c1ccc(C(C)C)cc1Br` [Compound 1-66], for which the IC50 turned out to be 46.4 nM.

Take `CCN(c1nc(C)cc(N2CC=C(c3cccc(C(F)(F)F)c3)CC2)n1)c1ccc(N(C)C)cc1Br` [Compound 1-67]: the IC50 came out at 61.4 nM.

Take `CCN(c1nc(C)cc(N2CC=C(c3cccc(C(F)(F)F)c3)CC2)n1)c1ccc(C(C)C)cc1SC` [Compound 1-68]: the IC50 was found to be 38.5 nM.

As for `CCN(c1nc(C)cc(N2CC=C(c3cccc(C(F)(F)F)c3)CC2)n1)c1c(C)cc(C)cc1C` [Compound 1-71], the IC50 was 55.9 nM.

Turning to `CCN(c1nc(C)cc(N2CC=C(c3cccc(C)c3)CC2)n1)c1ccc(C(C)C)cc1Br` [Compound 1-73], the IC50 was 65.8 nM.

Consider `CCN(c1nc(C)cc(N2CC=C(c3ccc(C)cc3)CC2)n1)c1ccc(C(C)C)cc1Br` [Compound 1-74], for which the IC50 turned out to be 62.9 nM.

As for `CCN(c1nc(C)cc(N2CC=C(c3ccc(OC)cc3)CC2)n1)c1ccc(C(C)C)cc1Br` [Compound 1-77], the IC50 was determined as 82.4 nM.

Turning to `CCN(c1nc(C)cc(N2CC=C(c3cccs3)CC2)n1)c1ccc(C(C)C)cc1Br` [Compound 1-78, 2-[N-(2-bromo-4-isopropylphenyl)-N-ethylamino]-4-[4-(thiophen-2-yl)-1,2,3,6-tetrahydropyridin-1-yl]-6-methylpyrimidine], the IC50 is 52.2 nM.

In the case of `CCN(c1nc(C)cc(N2CC=C(c3ccco3)CC2)n1)c1ccc(C(C)C)cc1Br` [Compound 1-79, 2-[N-(2-bromo-4-isopropylphenyl)-N-ethylamino]-4-[4-(furan-2-yl)-1,2,3,6-tetrahydropyridin-1-yl]-6-methylpyrimidine], the IC50 came to 44.5 nM.

For the compound `CCN(c1nc(C)cc(N2CCC=C(c3ccccc3)C2)n1)c1ccc(C(C)C)cc1Br` [Compound 2-01, 2-[N-(2-bromo-4-isopropylphenyl)-N-ethylamino]-4-(5-phenyl-1,2,3,6-tetrahydropyridin-1-yl)-6-methylpyrimidine hydrochloride], the IC50 is 89 nM.

As for `CCN(c1nc(C)cc(N2CCC=C(c3cccc(F)c3)C2)n1)c1ccc(C(C)C)cc1Br` [Compound 2-02], the IC50 stood at 96.2 nM.

On to `CCN(c1nc(C)cc(N2CCC=C(c3cccc(F)c3)C2)n1)c1ccc(C(C)C)cc1SC` [Compound 2-03], for which the IC50 is 82.3 nM.

As for `CCN(c1nc(C)cc(N2CCC=C(c3ccc(F)cc3)C2)n1)c1ccc(C(C)C)cc1Br` [Compound 2-04], the IC50 was found to be 82.3 nM.

Consider `CCN(c1nc(C)cc(N2CCC=C(c3ccc(F)cc3)C2)n1)c1ccc(C(C)C)cc1SC` [Compound 2-05], for which the IC50 came to 27.6 nM.

For `CCN(c1nc(C)cc(N2CCC=C(c3ccc(F)cc3)C2)n1)c1ccc(N(C)C)cc1Br` [Compound 2-06], the IC50 turned out to be 96.2 nM.

As for `C#CCN(c1nc(C)cc(N2CCC=C(c3ccc(F)cc3)C2)n1)c1ccc(C(C)C)cc1SC` [Compound 2-07], the IC50 is 20.2 nM.

Consider `CCN(c1nc(C)cc(N2CCC=C(c3cccc(Cl)c3)C2)n1)c1ccc(C(C)C)cc1SC` [Compound 2-09], for which the IC50 was 97.7 nM.

Turning to `CCN(c1nc(C)cc(N2CCC=C(c3cc(F)cc(F)c3)C2)n1)c1ccc(C(C)C)cc1SC` [Compound 2-13], the IC50 came to 82.3 nM.

For the compound `CCN(c1nc(C)cc(N2CCC=C(c3ccccc3C)C2)n1)c1ccc(C(C)C)cc1SC` [Compound 2-15, 2-[N-(4-isopropyl-2-methylthiophenyl)-N-ethylamino]-4-[5-(2-methylphenyl)-1,2,3,6-tetrahydropyridin-1-yl]-6-methylpyrimidine hydrochloride], the IC50 worked out at 10.8 nM.

For `CCN(c1nc(C)cc(N2CCC=C(c3cccc(C)c3)C2)n1)c1ccc(C(C)C)cc1SC` [Compound 2-18], the IC50 came out at 70.4 nM.

Turning to `CCN(c1nc(C)cc(N2CCC=C(c3ccc(C)cc3)C2)n1)c1ccc(C(C)C)cc1SC` [Compound 2-19], the IC50 turned out to be 70.4 nM.
